What was measured:
Type in all cases: physicochemical
[1] = Gelling of water-immiscible cosmetic liquids in 96 well glass micro-titre plate; parameters: key: gel; g4: gel after overnight (18 hrs) storage at 4° C.; g22: gel after overnight (18 hrs) storage at 22° C.; sg: soft gel; sg22: soft gel after overnight (18 hrs) storage at 22° C.; solution; *: the test at 4° C. was not carried out; details: for gelling of ISA: 150° C. 2.5 hours, cooled to ambient
Method in brief: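 Gel formation was scored by eye and by poking with a micro-spatula at three points: on cooling to room temperature, after 18 h at 18 °C, and after another 18 h at 4 °C. Before this, mixtures of cosmetic liquid with roughly 5% or 10% cellobiose ester were heated at 150 °C for 2.5 h.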

[2] = DSC of gels: fibre dissolution temperature (FDT) and solubility of structurant; details: for Solubility of structurant at 25° C.: from DSC of gel, relative to benchmark REF 2; for FDT: gel heated at 5 K/min in DSC, peak temperature of the highest peak
Procedure: In this Example the Fibre dissolution temperature (FDT) is measured in the DSC process described later herein, by observing when the fibres dissolve whilst the temperature of sample rises. FDT is taken to be the peak temperature of the highest peak.
In REF2 and REF3, the acyl substituents at the other seven cellobiose sites are nonanoyl.
Samples of gel (about 20 mg) were sealed in stainless steel capsules for DSC. An empty stainless steel capsule was used as the physical reference. The samples were subjected to the following temperature programme:
The sample was heated to 100° C. and held at 100° C. for 1 minute, in order to obtain an isotropic solution. The sample was then cooled at 5 K/min to −20° C. The sample was held at −20° C. for 1 minute. The sample is now a gel on the bottom of the sample capsule prepared in a reproducible manner. The gel was then heated at 5 K/min to 100° C. Data was also obtained with empty stainless steel pans as both physical sample and reference. This blank data was later subtracted from the sample data to remove any curvature in the base line.

[3] = Stability testing of gels: crystal growth visible by eye on storage at 37° C.; details: for Observations: 9% of REF1 and 1% of additional structurant
Procedure: Gels were made up using 10% structurant in a 60:40 mixture of Hydrogenated Polyisobutene (Panalene L14E):DC245. The gels, in sealed glass bottles, were left to stand for 18 hrs at room temperature, after which they were transferred to an oven thermostatically controlled to 37° C. Samples were checked periodically for signs of crystal growth visible by eye. REF1 is cellobiose octanonanoate.
Gels were made up and tested in accordance with the procedure in Example 6, as such or modified by employing a weight ratio of 9% of REF1 and 1% of an additional structurant as specified in Table 13 below.
The test procedure of Example 9 was repeated, but using ACB structurant REF2 alone as the structurant or to which a CHME structurant was added.

[4] = Visual assessment score (clarity of gel in 1 cm cuvette); details: for Clarity Visual (assessment score): 9% REF2 and 1% of the specified ester in 60:40 hydrogenated polydecene:DC245, scale −12 to 8; for Clarity Visual (appearance): 60:40 hydrogenated polydecene:DC245 gelled with 9% REF2 and 1% of the specified cellobiose ester
Excerpt: A gel contained within a 1 cm thick cuvette was placed directly on to a sheet of white paper on which 21 sets of figures where printed in black. The size and thickness of the figures varied systematically and were numbered from −12 (the largest, thickest set) through 0 to 8 (the smallest thinnest set) The score given to each gel was the highest numbered set which could be read clearly through the gel, the higher the number, the higher the clarity.

[5] = Light transmission at 580 nm (% T); details: for Clarity % T: 9% REF2 and 1% of the specified ester in 60:40 hydrogenated polydecene:DC245, 580 nm
Procedure: The translucency of a composition may be measured by placing a sample of standardised thickness in the light path of a spectrophotometer and measuring transmittance, as a percentage of light transmitted in the absence of the gel.
This test was carried out using a dual-beam spectrophotometer. The sample of composition was poured hot into a 4.5 ml cuvette made of poly(methyl-methacrylate) (PMMA) and allowed to cool to an ambient temperature of 20-25° C. Such a cuvette gives a 1 cm thickness of composition. […] A transmittence measured at any temperature in the range from 20-25° C. is usually adequately accurate, but measurement is made at 22° C. if more precision is required.

[6] = 5% cellobiose ester in Finsolv TN
[7] = 5% cellobiose ester in Fluid AP
[8] = 5% cellobiose ester in Mineral oil
[9] = 5% cellobiose ester in Polydecene
[10] = 10% cellobiose ester in Finsolv TN
[11] = 10% cellobiose ester in Fluid AP
[12] = 10% cellobiose ester in Mineral oil
[13] = 10% cellobiose ester in Polydecene
[14] = 10% structurant in 60:40 Panalene L14E:DC245, after 17 days at 37° C.
[15] = REF2 to which the CHME structurant was added, after 12 days at 37° C.

Row | SMILES | gelling of DC556 ([1]; 5% cellobiose ester in DC556) | gelling of Finsolv TN [1, 6] | gelling of Fluid AP [1, 7] | gelling of IPM ([1]; 5% cellobiose ester in IPM) | gelling of ISA ([1]; 5% cellobiose ester in ISA) | gelling of Mineral oil [1, 8] | gelling of Polydecene [1, 9] | gelling of DC556 ([1]; 10% cellobiose ester in DC556) | gelling of Finsolv TN [1, 10] | gelling of Fluid AP [1, 11] | gelling of IPM ([1]; 10% cellobiose ester in IPM) | gelling of ISA ([1]; 10% cellobiose ester in ISA) | gelling of Mineral oil [1, 12] | gelling of Polydecene [1, 13] | Solubility of structurant at 25° C. [2] | FDT [2] [°C] | Observation [3, 14] | Clarity Visual (assessment score) [4] | Clarity Visual (appearance) [4] | Clarity % T [5] [%] | other results
1 | CCCCCCCCC(=O)OCC1OC(OC2C(COC(=O)CCCCCCCC)OC(OC(=O)c3ccccc3)C(OC(=O)CCCCCCCC)C2OC(=O)CCCCCCCC)C(OC(=O)CCCCCCCC)C(OC(=O)CCCCCCCC)C1OC(=O)CCCCCCCC (mixture of isomers) [Ex 1.2] | gel | sol | sg | sol | sg | sg | gel | gel | sol | gel | sol | gel | gel | gel | Less soluble. No | 67 | No crystals after 17 days. | translucent 4 | transparent/ | 38 | –
2 | CCCCCCCCC(=O)OC[C@H]1O[C@@H](O[C@H]2[C@H](OC(=O)CCCCCCCC)[C@@H](OC(=O)CCCCCCCC)C(OC(=O)CCCCCCCC)O[C@@H]2COC(=O)CCCCCCCC)[C@H](OC(=O)CCCCCCCC)[C@@H](OC(=O)CCCCCCCC)[C@@H]1OC(=O)CCCCCCCC (stereo partly shown) [REF 2, cellobiose octanonanoate] | – | – | – | – | – | – | – | – | – | – | – | – | – | – | Benchmark. Some | 47 | Large amount of crystals throughout | slight haze 5 | transparent/ | 41 | Observation ([3]; 10% structurant in 60:40 Panalene L14E:DC245, after 7 days at 37° C.): Slight loss of clarity after 7 days; Observation ([3]; 10% structurant in 60:40 Panalene L14E:DC245, after 7 days at 37° C., listed as REF2): Slight loss of clarity after 7 days at 37 °C; Observation ([3]; 10% structurant in 60:40 Panalene L14E:DC245, after 8 days at 37° C.): Fine crystals on surface after 8; Observation ([3]; 10% structurant in 60:40 Panalene L14E:DC245, after 8 days at 37° C., listed as REF2): Fine crystals on surface after 8 days at 37 °C; Observation ([3]; 10% structurant in 60:40 Panalene L14E:DC245, after 9 days at 37° C.): Fine needle crystals throughout gel; Observation ([3]; 10% structurant in 60:40 Panalene L14E:DC245, after 9 days at 37° C., listed as REF2): Fine needle crystals throughout gel after 9; Observation ([3]; 10% structurant in 60:40 Panalene L14E:DC245, after 13 days at 37° C., listed as REF2): More needle crystals in gel bulk and crystal; % T Ex 1.12 ([5]; CHME = Ex 1.12, CHME:REF2 at stated weight ratio, total 10% in 60:40 Silkflo 364NF:DC245): 41%; % T Ex 1.13 ([5]; CHME = Ex 1.13, CHME:REF2 at stated weight ratio, total 10% in 60:40 Silkflo 364NF:DC245): 41%
3 | CCCCCCCCC(=O)OCC1OC(OC2C(COC(=O)CCCCCCCC)OC(OC(=O)c3ccccc3)C(OC(=O)CCCCCCCC)C2OC(=O)CCCCCCCC)C(OC(=O)CCCCCCCC)C(OC(=O)CCCCCCCC)C1OC(=O)CCCCCCCC (mixture of isomers) [Ex 1.1] | gel | g4 | gel | g4 | g22 | gel | gel | gel | gel | gel | gel | gel | gel | gel | Less soluble. No | 64 | – | translucent 5 | transparent/ | 55 | Observations ([3]; after 11 days at 37° C.): Slight crystal growth on surface after 11; Observation [3, 15]: No crystals after 12 days at 37 °C
4 | CCCCCCCCC(=O)OCC1OC(OC2C(COC(=O)CCCCCCCC)OC(OC(C)=O)C(OC(=O)CCCCCCCC)C2OC(=O)CCCCCCCC)C(OC(=O)CCCCCCCC)C(OC(=O)CCCCCCCC)C1OC(=O)CCCCCCCC (mixture of isomers) [Ex 1.7] | gel | – | gel | – | sg | sg | gel | gel | – | gel | – | gel | gel | gel | Less soluble. No | 72 | No crystals after 17 days. | > 8 | transparent | 52 | Observations ([3]; after 13 days at 37° C.): Slight crystal growth on surface after 13; Observation ([3]; REF2 to which the CHME structurant was added, after 13 days at 37° C.): Slight very fine crystal growth after 13
5 | CCCCCCCCC(=O)OCC1OC(OC2C(COC(=O)CCCCCCCC)OC(OC(=O)c3ccc4ccccc4c3)C(OC(=O)CCCCCCCC)C2OC(=O)CCCCCCCC)C(OC(=O)CCCCCCCC)C(OC(=O)CCCCCCCC)C1OC(=O)CCCCCCCC (mixture of isomers) [Ex 1.3] | gel | sol | gel | g4 | gel | g22 | gel | gel | g4 | gel | g22 | gel | g22 | gel | Less soluble. No | 63 | – | 4 | transparent | 58 | Observations ([3]; after 12 days at 37° C.): No crystals after 12 days at 37 °C; Observation [3, 15]: No crystals after 12 days at 37 °C
6 | CCCCCCCCC(=O)OCC1OC(OC2C(COC(=O)CCCCCCCC)OC(OC(=O)CCCCCCCC)C(OC(=O)CCCCCCCC)C2OC(=O)CCCCCCCC)C(OC(=O)CCCCCCCC)C(OC(=O)CCCCCCCC)C1OC(=O)CCCCCCCC (mixture of isomers) [REF 3, reference compound] | – | – | – | – | – | – | – | – | – | – | – | – | – | – | Slightly less soluble | 47 | – | translucent 4 | transparent/ | 46 | Observations ([3]; after 1 day at 37° C.): Some crystal growth on gel surface after; Observations ([3]; after 9 days at 37° C.): Crystals throughout gel after 9 days at; Observations ([3]; after 13 days at 37° C.): 37° C.; More crystals throughout gel after
